Test system: sodium channel in hTRPV1-N1E115 cells
Test: FLIPR membrane potential assay of sodium channel response in hTRPV1-N1E115 cells, with (47° C.) or without (25° C.) heat activation of hTRPV1
Format: cell-based
Details: for hTRPV1-N1E Nav 0.1 mM (% inhibition) 25° C. / hTRPV1-N1E Nav 1 mM (% inhibition) 25° C.: 25° C. (no heat activation of hTRPV1); for hTRPV1-N1E Nav 0.1 mM (% inhibition) 47° C. / hTRPV1-N1E Nav 1 mM (% inhibition) 47° C.: 47° C. (heat activation of hTRPV1); for hTRPV1-N1E Nav 0.1 mM (% inhibition) 47° C., DMSO / IC50: 47° C.; for IC50: class symbols, read-out: hTRPV1-N1E IC50 (μM) 47° C.
Text: In one embodiment, a modified FLIPR® (Fluorometric Imaging Plate Reader) based assay system was developed which is capable of discriminating between non-specific versus hTRPV1-mediated entry of test compounds. Advantageously, the assay system utilizes heat activated opening of hTRPV1 channels followed by an assessment of internal sodium channel block. The assay allows a permanently charged compound to selectively enter through opened hTRPV1 channels and that compound's potency in inhibiting sodium channels from the cytoplasm side of the same cell can be assessed and quantified.
The assay is readily performed in multi-well assay plates into which cells in growth media are added and incubated under conditions which permit the formation of a confluent monolayer over a period of hours prior to the start of the assay. Conventional culture media and conditions may be utilized. Duplicate cell assay plates are prepared for each experiment.
The spent media from the cell seeded plates is removed on the day of the assay and replaced with Membrane potential Dye-Blue (Molecular Devices). The dye was prepared in assay buffer following manufacturer's instructions. The dye-loaded plate is incubated at room temperature (about 25° C.) for about 30 minutes in order to pre-load the cells with dye. Optionally, the cells may be loaded with the dye simultaneously with adding the test compounds.
The test compounds are diluted in the Assay Buffer and added to each well of a specific 384-well ‘compound plate’, which serves as a source plate for compound addition using the FLIPR® platform. The concentration of compounds in the compound-plate was adjusted to achieve the desired final concentration when added to the cells in the ‘cell-plate’. After completion of the dye incubation period, the dye loaded cell-plates and the compound source plates are inserted into the FLIPR® Tetra™ device with a 384 FLIPR® tip box (Molecular Devices, Inc.) according to manufacturer's instructions. The compounds are robotically added to the dye loaded cell-plates using software integral to the FLIPR® Tetra™ instrument.
Immediately following compound addition, hTRPV1 is activated, in one of the duplicate cell plates, by heating. Specifically, entire multi-well plate containing the compound-cells mixture is incubated at 47° C. for 10 minutes, after which they are returned to room temperature (about 25° C.) for a further 30 minutes. Heat activation of hTRPV1 was omitted from the replicate cell plate which was simply maintained at room temperature for the entire 40 minutes.
A membrane potential response is elicited in the dye- and compound-loaded cells by the addition of veratridine which is a known sodium channel ‘agonist’. As illustrated in an example herein, an agonist plate containing veratridine (Sigma) is prepared in advance and is inserted into suitable devices such as, e.g., the FLIPR® TETRA® device for a “2nd addition” as instructed by the manufacturer. The concentration of veratridine in the ‘agonist plate’ was adjusted to achieve a final concentration of 100 μM when added to the cells in the cell-plate. Final concentrations of veratridine greater or lesser than 100 μM may also be used but the signal measured by the FLIPR®^Tetra™ device or another suitable device may vary accordingly.
The exposure of the cells in the cell-plate to veratridine induces sodium channels in the cells to open and the resulting ion flux produces a membrane potential depolarization that is detected as a fluorescence signal by the FLIPR® ^Tetra™ Device. The activity of test compounds is determined by their ability to attenuate the veratridine-induced fluorescence signal, the most promising compounds are those that show an enhanced activity in the heat-activated cell plate over the non-heat-activated cell plate. […]

SMILES | hTRPV1-N1E Nav 0.1 mM (% inhibition) 25° C., DMSO [%] | hTRPV1-N1E Nav 0.1 mM (% inhibition) 47° C., DMSO | hTRPV1-N1E Nav 0.1 mM (% inhibition) 25° C. [%] | hTRPV1-N1E Nav 0.1 mM (% inhibition) 47° C. | IC50 [µM] | hTRPV1-N1E Nav 1 mM (% inhibition) 25° C. | hTRPV1-N1E Nav 1 mM (% inhibition) 47° C.
CCC[N+]1(CCC)CCCC[C@H]1CCN(c1ccccc1)C1Cc2ccccc2C1.[I-] [Example 1, (S)-1,1-dipropyl-2-[2-((indan-2-yl)(phenyl)amino)ethyl]piperidinium iodide] | 56 | 87 (N = 4, DMSO) % |  |  |  |  | 
C[N+]1(C)CCCC1CCN(c1ccccc1)C1Cc2ccccc2C1.[I-] (centres unmarked) [Example 5, 1,1-dimethyl-2-[2-((indan-2-yl)(phenyl)amino)ethyl]pyrrolidinium iodide] |  |  | 21 | 50 (N = 2) % | 10 to 100 |  | 
C[N+]1(C)CCCCC1CCCN(c1ccccc1)C1Cc2ccccc2C1.[I-] (centres unmarked) [Example 7] |  |  | 27.3 | 57.9 (N = 2) % | 10 to 100 | Insoluble | Insoluble
C[N+]1(C)CCCC1CN(c1ccccc1)C1Cc2ccccc2C1.[I-] (centres unmarked) [Example 8, 1,1-dimethyl-2-[((indan-2-yl)(phenyl)amino)methyl]pyrrolidinium iodide] |  |  | 6.5 | 22.7 (N = 2) % |  | 39.9 (N = 2) % | 69.5 (N = 2) %
CCC[N+]1(CCC)CCCC[C@@H]1CCN(c1ccccc1)C1Cc2ccccc2C1.[I-] [Example 12, (R)-1,1-Dipropyl-2-[2-((indan-2-yl)(phenyl)amino)ethyl]piperidinium iodide] | 49 | 87 (N = 4, DMSO) % |  |  |  |  | 
CC[N+]1(CC)CCCCC1CN(c1ccccc1)C1Cc2ccccc2C1.[I-] (centres unmarked) [Example 13, 1,1-Diethyl-2-[((indan-2-yl)(phenyl)amino)methyl]piperidinium iodide] |  |  | 67 | 99 (N = 2) % | 10 to 100 | 64 (N = 2) % | 92 (N = 2) %
C[N+]1(C)CCCCC1CCN(c1cccc(F)c1)C1Cc2ccccc2C1.[I-] (centres unmarked) [Example 14, 1,1-dimethyl-2-[2-((3-fluorophenyl)(indan-2-yl)amino)ethyl]piperidinium iodide] |  |  | 6.3 | 76.7 (N = 3) % | 10 to 100 | 3.8 (N = 3) % | 25.3 (N = 3) %
C[N+]1(C)CCCCC1CCN(c1ccc(F)cc1)C1Cc2ccccc2C1.[I-] (centres unmarked) [Example 15, 1,1-Dimethyl-2-[2-((4-fluorophenyl)(indan-2-yl)amino)ethyl]piperidinium iodide] |  |  | 2.8 | 75.2 (N = 3) % | 10 to 100 | 0.7 (N = 3) % | 35.0 (N = 3) %
CC[N+]1(CC)CCCCC1CCN(c1cccc(F)c1)C1Cc2ccccc2C1.[I-] (centres unmarked) [Example 17, 1,1-diethyl-2-[2-((3-fluorophenyl)(indan-2-yl)amino)ethyl]piperidinium iodide] |  |  | 1 | 86.1 (N = 3) % | 10 to 100 | 6.1 (N = 3) % | 28.9 (N = 3) %
CC[N+]1(CC)CCCCC1CCN(c1ccc(F)cc1)C1Cc2ccccc2C1.[I-] (centres unmarked) [Example 18, 1,1-diethyl-2-[2-((4-fluorophenyl)(indan-2-yl)amino)ethyl]piperidinium iodide] |  |  | 0 | 86.9 (N = 3) % | 10 to 100 | 0 (N = 3) % | 38.2 (N = 3) %
Cc1cccc(N(CCC2CCCC[N+]2(C)C)C2Cc3ccccc3C2)c1.[I-] (centres unmarked) [Example 19, 1,1-Dimethyl-2-[2-((indan-2-yl)(3-methylphenyl)amino)ethyl]piperidinium iodide] |  |  | 0 | 87.9% | 10 to 100 | Insoluble | Insoluble
[Br-].c1ccc(N(CCC2CCCC[N+]23CCCC3)C2Cc3ccccc3C2)cc1 (centres unmarked) [Example 20, 6-[2-((Indan-2-yl)(phenyl)amino)ethyl]-5-azoniaspiro[4.5]decane bromide] |  |  | 11.2 | 94.8 (N = 3) % | 10 to 100 | 0 (N = 3) % | 48.9 (N = 3) %
CC[N+]1(CC)CCCCC1CCN(c1cccc(C)c1)C1Cc2ccccc2C1.[I-] (centres unmarked) [Example 21, 1,1-Diethyl-2-[2-((indan-2-yl)(3-methylphenyl)amino)ethyl]piperidinium iodide] |  |  | 44.7 | 80.2 (N = 3) % | 10 to 100 | 58.2 (N = 3) % | 64.3 (N = 3) %
Cc1ccc(N(CCC2CCCC[N+]2(C)C)C2Cc3ccccc3C2)cc1.[I-] (centres unmarked) [Example 22, 1,1-Dimethyl-2-[2-((indan-2-yl)(4-methylphenyl)amino)ethyl]piperidinium iodide] |  |  | 8.7 | 62.7 (N = 2) % | 10 to 100 | 48 (N = 2) % | 69.9 (N = 2) %
CC[N+]1(CC)CCCCC1CCN(c1ccccc1C)C1Cc2ccccc2C1.[I-] (centres unmarked) [Example 25, 1,1-Diethyl-2-[2-((indan-2-yl)(2-methylphenyl)amino)ethyl]piperidinium iodide] |  |  | 26.4 | 89.6 (N = 2) % | 1 to 10 | Insoluble | Insoluble
CC[N+]1(CC)CCCCC1CCCN(c1ccccc1)C1Cc2ccccc2C1.[I-] (centres unmarked) [Example 26, 1,1-Diethyl-2-[3-((indan-2-yl)(phenyl)amino)propyl]piperidinium iodide] |  |  | 44.6 | 64.7 (N = 2) % | 10 to 100 | Insoluble | Insoluble
Cc1ccc(N(CC2CCCC[N+]2(C)C)C2Cc3ccccc3C2)cc1.[I-] (centres unmarked) [Example 27, 1,1-Dimethyl-2-[((indan-2-yl)(4-methylphenyl)amino)methyl]piperidinium iodide] |  |  | 68.1 | 81.3 (N = 2) % |  | 61.4 (N = 2) % | 71.9 (N = 2) %
C[N+]1(C)CCCCC1CN(c1ccc(F)cc1)C1Cc2ccccc2C1.[I-] (centres unmarked) [Example 28, 1,1-Dimethyl-2-[((4-fluorophenyl)(indan-2-yl)amino)methyl]piperidinium iodide] |  |  | 30.2 | 43.7 (N = 2) % |  | 61.8 (N = 2) % | 86.6 (N = 2) %
Cc1cccc(N(CC2CCCC[N+]2(C)C)C2Cc3ccccc3C2)c1.[I-] (centres unmarked) [Example 29, 1,1-Dimethyl-2-[((indan-2-yl)(3-methylphenyl)amino)methyl]piperidinium iodide] |  |  | 68.9 | 82.9 (N = 2) % |  | 64.6 (N = 2) % | 75.3 (N = 2) %

— patent publication US8865741B2, “Aminoindane compounds and use thereof in treating pain” (Asana Biosciences, LLC, priority 2011, dated 2014)
